This note sets out measurements from PubChem BioAssay AID256 (DTP/NCI, 2004).

The structures appear in SMILES notation. Where “and” joins values, the source holds several entries; their conditions need not be identical. Equal entries are not always repeated. Inconclusive results and toxic doses are left out.

This assay has as its system CD2F1 mice, L1210 leukemia ip, survival T/C. Nature of the assay: NCI In Vivo Anticancer Drug Screen. Data for tumor model L1210 Leukemia (intraperitoneal) in CD2F1 (CDF1) mice. As to conditions: higher = longer survival. The essentials:
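Compound-dosed mice with transplantable tumor versus matched vehicle controls; endpoint ratio T/C reported.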

Setting [1] is: endpoint: mean survival time, dose: 50.0 mg/kg/injection, schedule: Q01DX009 (ip), vehicle: saline with Tween-80.
[2] abbreviates: endpoint: mean survival time, dose: 100.0 mg/kg/injection, schedule: Q01DX009 (ip), vehicle: saline with Tween-80.
The mark [3] stands for this setting: endpoint: mean survival time, dose: 200.0 mg/kg/injection, schedule: Q01DX009 (ip), vehicle: saline with Tween-80.
[4] abbreviates: endpoint: mean survival time, dose: 100.0 mg/kg/injection, schedule: Q04DX002 (ip), vehicle: saline with Tween-80.
Where [5] appears, read: endpoint: mean survival time, dose: 200.0 mg/kg/injection, schedule: Q04DX002 (ip), vehicle: saline with Tween-80.
Setting [6] is: endpoint: mean survival time, dose: 400.0 mg/kg/injection, schedule: Q04DX002 (ip), vehicle: saline with Tween-80.
The mark [7] stands for this setting: endpoint: mean survival time, dose: 100.0 mg/kg/injection, schedule: Q04DX003 (ip), vehicle: saline with Tween-80.
Setting [8] is: endpoint: mean survival time, dose: 200.0 mg/kg/injection, schedule: Q04DX003 (ip), vehicle: saline with Tween-80.
Where [9] appears, read: endpoint: mean survival time, dose: 400.0 mg/kg/injection, schedule: Q04DX003 (ip), vehicle: saline with Tween-80.
Setting [10] is: endpoint: mean survival time, dose: 25.0 mg/kg/injection, schedule: Q04DX003 (ip), vehicle: saline.

On to `COc1cc(OC)c(NC(=O)Oc2ccc(F)cc2Cl)cc1Cl`, for which the T/C is, setting by setting: under setting [1], 88 % of control; under setting [2], 100 % of control; under setting [3], 103 % of control.

With `CC1CN1P(=O)(N1CC1C)N1CC1C.CC1CN1P(=O)(N1CC1C)N1CC1C.CC1CN1P(=O)(N1CC1C)N1CC1C.CC1CN1P(=O)(N1CC1C)N1CC1C.CC1CN1P(=O)(N1CC1C)N1CC1C.CC1CN1P(=O)(N1CC1C)N1CC1C.[Fe+3].[O-][Cl+3]([O-])([O-])O` (stereo unspecified), the T/C is 98 % of control under setting [4], 98 % of control under setting [5] and 115 % of control under setting [6].

Consider `O=C(O)c1ccccc1C(=O)c1cccc2ccccc12`, for which the T/C is 104 % of control under setting [7] and 96 % of control under setting [8].

Consider `Nc1ccc2[nH]c(=S)sc2c1`, for which the T/C by setting is: under setting [7], 94 % of control; under setting [8], 92 % of control; under setting [9], 90 % of control.

With `CCCCCCCCCCCCCCCCCCn1cnc2c(Cl)ncnc21`, the T/C reads like this: (endpoint: mean survival time, dose: 12.5 mg/kg/injection, schedule: Q01DX005 (ip), vehicle: other) 87 % of control; (endpoint: mean survival time, dose: 25.0 mg/kg/injection, schedule: Q01DX005 (ip), vehicle: other) 91 % of control; (endpoint: mean survival time, dose: 50.0 mg/kg/injection, schedule: Q01DX005 (ip), vehicle: other) 92 % of control; (endpoint: mean survival time, dose: 200.0 mg/kg/injection, schedule: Q01DX005 (ip), vehicle: other) 86 % of control.

For the molecule `OCC1OC(n2cnc3c2nnn2ccnc32)C(O)C1O` (stereo unspecified), the T/C runs as follows: (endpoint: mean survival time, dose: 100.0 mg/kg/injection, schedule: Q01DX009 (ip), vehicle: saline) 112 % of control; (endpoint: mean survival time, dose: 200.0 mg/kg/injection, schedule: Q01DX009 (ip), vehicle: saline) 106 % of control; (endpoint: mean survival time, dose: 400.0 mg/kg/injection, schedule: Q01DX009 (ip), vehicle: saline) 115 % of control.

In the case of `O=c1[nH]c(=O)n(C2OC(CO)C(O)C2O)cc1Br` (stereo unspecified), the T/C runs as follows: under setting [4], 109 % of control; under setting [5], 101 % of control; under setting [6], 101 % of control.

As for `CN=C1C=C/C(=N/N=c2/ccn(O)cc2C)C=C1C`, the T/C (endpoint: mean survival time, dose: 25.0 mg/kg/injection, schedule: Q04DX002 (ip), vehicle: saline with Tween-80) is 106 % of control; the T/C (endpoint: mean survival time, dose: 50.0 mg/kg/injection, schedule: Q04DX002 (ip), vehicle: saline with Tween-80) was 95 % of control; the T/C under setting [4] was 111 % of control.

Regarding `C1CCC(CCC2CCCC[N-]2)[N-]C1.C1CCC(CCC2CCCC[N-]2)[N-]C1.[Ni+2].[O-][Cl+3]([O-])([O-])O` (stereo unspecified), the T/C runs as follows: (endpoint: mean survival time, dose: 5.0 mg/kg/injection, schedule: Q01DX009 (ip), vehicle: saline) 103 % of control; (endpoint: mean survival time, dose: 10.0 mg/kg/injection, schedule: Q01DX009 (ip), vehicle: saline) 104 % of control; (endpoint: mean survival time, dose: 12.5 mg/kg/injection, schedule: Q01DX001 (ip), vehicle: saline with Tween-80) 90 % of control; (endpoint: mean survival time, dose: 12.5 mg/kg/injection, schedule: Q04DX002 (ip), vehicle: saline) 95 % of control; (endpoint: mean survival time, dose: 12.5 mg/kg/injection, schedule: Q04DX003 (ip), vehicle: saline) 104 % of control; (endpoint: mean survival time, dose: 20.0 mg/kg/injection, schedule: Q01DX009 (ip), vehicle: saline) 103 % of control. In addition, the T/C was 102 % of control (endpoint: mean survival time, dose: 25.0 mg/kg/injection, schedule: Q01DX001 (ip), vehicle: saline); 98 % of control (endpoint: mean survival time, dose: 25.0 mg/kg/injection, schedule: Q04DX002 (ip), vehicle: saline); 108 % of control under setting [10]; 109 % of control (endpoint: mean survival time, dose: 40.0 mg/kg/injection, schedule: Q01DX009 (ip), vehicle: saline); 102 % of control (endpoint: mean survival time, dose: 50.0 mg/kg/injection, schedule: Q01DX001 (ip), vehicle: saline); 98 % of control (endpoint: mean survival time, dose: 50.0 mg/kg/injection, schedule: Q04DX002 (ip), vehicle: saline). Further, the T/C runs as follows: (endpoint: mean survival time, dose: 50.0 mg/kg/injection, schedule: Q04DX003 (ip), vehicle: saline) 102 % of control; (endpoint: mean survival time, dose: 75.0 mg/kg/injection, schedule: Q01DX001 (ip), vehicle: saline) 101 % of control; (endpoint: mean survival time, dose: 100.0 mg/kg/injection, schedule: Q01DX001 (ip), vehicle: saline) 102 % of control; (endpoint: mean survival time, dose: 100.0 mg/kg/injection, schedule: Q04DX002 (ip), vehicle: saline) 102 % of control; (endpoint: mean survival time, dose: 100.0 mg/kg/injection, schedule: Q04DX003 (ip), vehicle: saline) 104 % of control.

On to `C=CC1(C)C(C)=C(C)C(C)=C1C`, for which the T/C by setting is: (endpoint: mean survival time, dose: 100.0 mg/kg/injection, schedule: Q01DX001 (ip), vehicle: saline sonified) 100 % of control; (endpoint: mean survival time, dose: 200.0 mg/kg/injection, schedule: Q01DX001 (ip), vehicle: saline sonified) 94 % of control; (endpoint: mean survival time, dose: 400.0 mg/kg/injection, schedule: Q01DX001 (ip), vehicle: saline sonified) 89 % of control.

For the molecule `CC(Oc1ccccc1-c1ccccc1)C(=O)N(C)C` (stereo unspecified), the T/C runs as follows: (endpoint: mean survival time, dose: 12.5 mg/kg/injection, schedule: Q01DX009 (ip), vehicle: saline with Tween-80) 93 % of control and 102 % of control; (endpoint: mean survival time, dose: 25.0 mg/kg/injection, schedule: Q01DX009 (ip), vehicle: saline with Tween-80) 95 % of control and 100 % of control; under setting [1], 97 % of control and 104 % of control; under setting [2], 97 % of control and 104 % of control; under setting [3], 95 % of control and 102 % of control; (endpoint: mean survival time, dose: 400.0 mg/kg/injection, schedule: Q01DX009 (ip), vehicle: saline with Tween-80) 97 % of control and 104 % of control.

Turning to `CCCC[n+]1ccccc1Cc1ccccc1`, the T/C under setting [10] was 101 % of control.

`CN1C(=O)CN(CCN2CC(=O)N(c3ccccc3)C2=S)C1=S`: the T/C is, setting by setting: under setting [1], 93 % of control; under setting [2], 93 % of control; under setting [3], 89 % of control.

In the case of `CNC(=O)OCc1c(COC(=O)NC)c(-c2ccc(Cl)c(Cl)c2)n2c1Cc1ccccc1C2`, the T/C is 122 % of control (endpoint: median survival time, dose: 12.5 mg/kg/injection, schedule: Q01DX009 (ip), vehicle: distilled water + Tween-80); 122 % of control (endpoint: median survival time, dose: 25.0 mg/kg/injection, schedule: Q01DX009 (ip), vehicle: distilled water + Tween-80); 157 % of control (endpoint: median survival time, dose: 50.0 mg/kg/injection, schedule: Q01DX009 (ip), vehicle: distilled water + Tween-80); 164 % of control and 173 % of control (endpoint: median survival time, dose: 100.0 mg/kg/injection, schedule: Q01DX009 (ip), vehicle: distilled water + Tween-80); 124 % of control (endpoint: median survival time, dose: 200.0 mg/kg/injection, schedule: Q01DX009 (ip), vehicle: distilled water + Tween-80).

As for `CO[C@@]12[C@@H]3N[C@@H]3CN1C1=C(C(=O)C(NCCN3CCOCC3)=C(C)C1=O)[C@@H]2COC(N)=O`, the T/C by setting is: (endpoint: mean survival time, dose: 1.5 mg/kg/injection, schedule: Q01DX001 (ip), vehicle: water) 100 % of control; (endpoint: mean survival time, dose: 3.0 mg/kg/injection, schedule: Q01DX001 (ip), vehicle: water) 101 % of control; (endpoint: mean survival time, dose: 6.0 mg/kg/injection, schedule: Q01DX001 (ip), vehicle: water) 105 % of control; (endpoint: mean survival time, dose: 12.0 mg/kg/injection, schedule: Q01DX001 (ip), vehicle: water) 106 % of control; (endpoint: mean survival time, dose: 24.0 mg/kg/injection, schedule: Q01DX001 (ip), vehicle: water) 103 % of control.

In the case of `O=C(O)COc1ccc(-c2ccccc2)cc1`, the T/C was 104 % of control under setting [7], 90 % of control under setting [8] and 101 % of control under setting [9].

On to `O=C1C=Cc2ccccc2C1=O`, for which the T/C reads like this: (endpoint: mean survival time, dose: 0.63 mg/kg/injection, schedule: Q01DX009 (ip), vehicle: saline) 98 % of control; (endpoint: mean survival time, dose: 1.0 mg/kg/injection, schedule: Q01DX009 (ip), vehicle: saline) 105 % of control; (endpoint: mean survival time, dose: 1.25 mg/kg/injection, schedule: Q01DX009 (ip), vehicle: saline) 104 % of control; (endpoint: mean survival time, dose: 2.0 mg/kg/injection, schedule: Q01DX009 (ip), vehicle: saline) 98 % of control; (endpoint: mean survival time, dose: 2.5 mg/kg/injection, schedule: Q01DX009 (ip), vehicle: saline with Tween-80) 110 % of control; (endpoint: mean survival time, dose: 2.5 mg/kg/injection, schedule: Q01DX009 (ip), vehicle: saline) 98 % of control. In addition, the T/C (endpoint: mean survival time, dose: 4.0 mg/kg/injection, schedule: Q01DX009 (ip), vehicle: saline) is 88 % of control.

On to `O=C1NC(=O)C(c2ccccc2)(C2CCC2)N1` (stereo unspecified), for which the T/C is 95 % of control under setting [7] and 88 % of control under setting [9].
